# Reference: PubChem BioAssay AID1259407 (Chemical Carcinogenesis Research Information System (CCRIS), 2018)
# Active and inactive are the calls of the source. How the calls were made is not given here.
# Test system: CCRIS mutagenicity, Ames/micronucleus/aberration tests
# Experiment: CCRIS mutagenicity studies
# [1] = Test System: AMES SALMONELLA TYPHIMURIUM, Strain/Indicator: TA98, Metabolic Activation: HAMSTER, LIVER, S-9, AROCLOR 1254 (10%), Method: PREINCUBATION
# [2] = Test System: AMES SALMONELLA TYPHIMURIUM, Strain/Indicator: TA98, Metabolic Activation: NONE, Method: PREINCUBATION
# [3] = Test System: AMES SALMONELLA TYPHIMURIUM, Strain/Indicator: TA98, Metabolic Activation: RAT, LIVER, S-9, AROCLOR 1254 (10%), Method: PREINCUBATION
# [4] = Test System: AMES SALMONELLA TYPHIMURIUM, Strain/Indicator: TA100, Metabolic Activation: HAMSTER, LIVER, S-9, AROCLOR 1254 (10%), Method: PREINCUBATION
# [5] = Test System: AMES SALMONELLA TYPHIMURIUM, Strain/Indicator: TA100, Metabolic Activation: NONE, Method: PREINCUBATION
# [6] = Test System: AMES SALMONELLA TYPHIMURIUM, Strain/Indicator: TA100, Metabolic Activation: RAT, LIVER, S-9, AROCLOR 1254 (10%), Method: PREINCUBATION
# [7] = Test System: AMES SALMONELLA TYPHIMURIUM, Strain/Indicator: TA1535, Metabolic Activation: HAMSTER, LIVER, S-9, AROCLOR 1254 (10%), Method: PREINCUBATION
# [8] = Test System: AMES SALMONELLA TYPHIMURIUM, Strain/Indicator: TA1535, Metabolic Activation: NONE, Method: PREINCUBATION
# [9] = Test System: AMES SALMONELLA TYPHIMURIUM, Strain/Indicator: TA1535, Metabolic Activation: RAT, LIVER, S-9, AROCLOR 1254 (10%), Method: PREINCUBATION
smiles,measurement,setting,value
[O]=[Zr],mutagenic call,[1],inactive; negative
same,mutagenic call,"Test System: AMES SALMONELLA TYPHIMURIUM, Strain/Indicator: TA98, Metabolic Activation: HAMSTER, LIVER, S-9, AROCLOR 1254, Method: STANDARD PLATE",inactive; negative
same,mutagenic call,[2],inactive; negative
same,mutagenic call,"Test System: AMES SALMONELLA TYPHIMURIUM, Strain/Indicator: TA98, Metabolic Activation: NONE, Method: STANDARD PLATE",inactive; negative
same,mutagenic call,[3],inactive; negative
same,mutagenic call,"Test System: AMES SALMONELLA TYPHIMURIUM, Strain/Indicator: TA98, Metabolic Activation: RAT, LIVER, S-9, AROCLOR 1254, Method: STANDARD PLATE",inactive; negative
same,mutagenic call,[4],inactive; negative
same,mutagenic call,"Test System: AMES SALMONELLA TYPHIMURIUM, Strain/Indicator: TA100, Metabolic Activation: HAMSTER, LIVER, S-9, AROCLOR 1254, Method: STANDARD PLATE",inactive; negative
same,mutagenic call,[5],inactive; negative
same,mutagenic call,"Test System: AMES SALMONELLA TYPHIMURIUM, Strain/Indicator: TA100, Metabolic Activation: NONE, Method: STANDARD PLATE",inactive; negative
same,mutagenic call,[6],inactive; negative
same,mutagenic call,"Test System: AMES SALMONELLA TYPHIMURIUM, Strain/Indicator: TA100, Metabolic Activation: RAT, LIVER, S-9, AROCLOR 1254, Method: STANDARD PLATE",inactive; negative
same,mutagenic call,[7],inactive; negative
same,mutagenic call,"Test System: AMES SALMONELLA TYPHIMURIUM, Strain/Indicator: TA1535, Metabolic Activation: HAMSTER, LIVER, S-9, AROCLOR 1254, Method: STANDARD PLATE",inactive; negative
same,mutagenic call,[8],inactive; negative
same,mutagenic call,"Test System: AMES SALMONELLA TYPHIMURIUM, Strain/Indicator: TA1535, Metabolic Activation: NONE, Method: STANDARD PLATE",inactive; negative
same,mutagenic call,[9],inactive; negative
same,mutagenic call,"Test System: AMES SALMONELLA TYPHIMURIUM, Strain/Indicator: TA1535, Metabolic Activation: RAT, LIVER, S-9, AROCLOR 1254, Method: STANDARD PLATE",inactive; negative
same,mutagenic call,"Test System: AMES SALMONELLA TYPHIMURIUM, Strain/Indicator: TA1537, Metabolic Activation: HAMSTER, LIVER, S-9, AROCLOR 1254 (10%), Method: PREINCUBATION",inactive; negative
same,mutagenic call,"Test System: AMES SALMONELLA TYPHIMURIUM, Strain/Indicator: TA1537, Metabolic Activation: HAMSTER, LIVER, S-9, AROCLOR 1254, Method: STANDARD PLATE",inactive; negative
same,mutagenic call,"Test System: AMES SALMONELLA TYPHIMURIUM, Strain/Indicator: TA1537, Metabolic Activation: NONE, Method: PREINCUBATION",inactive; negative
same,mutagenic call,"Test System: AMES SALMONELLA TYPHIMURIUM, Strain/Indicator: TA1537, Metabolic Activation: NONE, Method: STANDARD PLATE",inactive; negative
same,mutagenic call,"Test System: AMES SALMONELLA TYPHIMURIUM, Strain/Indicator: TA1537, Metabolic Activation: RAT, LIVER, S-9, AROCLOR 1254 (10%), Method: PREINCUBATION",inactive; negative
same,mutagenic call,"Test System: AMES SALMONELLA TYPHIMURIUM, Strain/Indicator: TA1537, Metabolic Activation: RAT, LIVER, S-9, AROCLOR 1254, Method: STANDARD PLATE",inactive; negative
same,mutagenic call,"Test System: AMES SALMONELLA TYPHIMURIUM, Strain/Indicator: TA1538, Metabolic Activation: HAMSTER, LIVER, S-9, AROCLOR 1254, Method: STANDARD PLATE",inactive; negative
same,mutagenic call,"Test System: AMES SALMONELLA TYPHIMURIUM, Strain/Indicator: TA1538, Metabolic Activation: NONE, Method: STANDARD PLATE",inactive; negative
same,mutagenic call,"Test System: AMES SALMONELLA TYPHIMURIUM, Strain/Indicator: TA1538, Metabolic Activation: RAT, LIVER, S-9, AROCLOR 1254, Method: STANDARD PLATE",inactive; negative
same,mutagenic call,"Test System: MOUSE LYMPHOMA, Strain/Indicator: L5178Y (TK+/TK-), Metabolic Activation: NONE, Method: SUSPENSION/PLATE",inactive; negative. reevaluation of results: negative
same,mutagenic call,"Test System: MOUSE LYMPHOMA, Strain/Indicator: L5178Y (TK+/TK-), Metabolic Activation: RAT, LIVER, S-9, AROCLOR 1254, Method: SUSPENSION/PLATE",inactive; negative. reevaluation of results: negative
Cl[C@@H]1O[C@@H]1CBr,mutagenic call,[5],active; positive
CCCCCCCCOc1ccc(C(=O)O)cc1,mutagenic call,"Test System: AMES SALMONELLA TYPHIMURIUM, Strain/Indicator: TA97, Metabolic Activation: HAMSTER, LIVER, S-9, AROCLOR 1254 (10%), Method: PREINCUBATION",inactive; negative
same,mutagenic call,"Test System: AMES SALMONELLA TYPHIMURIUM, Strain/Indicator: TA97, Metabolic Activation: HAMSTER, LIVER, S-9, AROCLOR 1254 (30%), Method: PREINCUBATION",inactive; negative
same,mutagenic call,"Test System: AMES SALMONELLA TYPHIMURIUM, Strain/Indicator: TA97, Metabolic Activation: NONE, Method: PREINCUBATION",inactive; negative
same,mutagenic call,"Test System: AMES SALMONELLA TYPHIMURIUM, Strain/Indicator: TA97, Metabolic Activation: RAT, LIVER, S-9, AROCLOR 1254 (10%), Method: PREINCUBATION",inactive; negative
same,mutagenic call,"Test System: AMES SALMONELLA TYPHIMURIUM, Strain/Indicator: TA97, Metabolic Activation: RAT, LIVER, S-9, AROCLOR 1254 (30%), Method: PREINCUBATION",inactive; negative
same,mutagenic call,[1],inactive; negative
same,mutagenic call,"Test System: AMES SALMONELLA TYPHIMURIUM, Strain/Indicator: TA98, Metabolic Activation: HAMSTER, LIVER, S-9, AROCLOR 1254 (30%), Method: PREINCUBATION",inactive; negative
same,mutagenic call,[2],inactive; negative
same,mutagenic call,[3],inactive; negative
same,mutagenic call,"Test System: AMES SALMONELLA TYPHIMURIUM, Strain/Indicator: TA98, Metabolic Activation: RAT, LIVER, S-9, AROCLOR 1254 (30%), Method: PREINCUBATION",inactive; negative
same,mutagenic call,[4],inactive; negative
same,mutagenic call,"Test System: AMES SALMONELLA TYPHIMURIUM, Strain/Indicator: TA100, Metabolic Activation: HAMSTER, LIVER, S-9, AROCLOR 1254 (30%), Method: PREINCUBATION",inactive; negative
same,mutagenic call,[5],inactive; negative
same,mutagenic call,[6],inactive; negative
same,mutagenic call,"Test System: AMES SALMONELLA TYPHIMURIUM, Strain/Indicator: TA100, Metabolic Activation: RAT, LIVER, S-9, AROCLOR 1254 (30%), Method: PREINCUBATION",inactive; negative
same,mutagenic call,[7],inactive; negative
same,mutagenic call,"Test System: AMES SALMONELLA TYPHIMURIUM, Strain/Indicator: TA1535, Metabolic Activation: HAMSTER, LIVER, S-9, AROCLOR 1254 (30%), Method: PREINCUBATION",inactive; negative
same,mutagenic call,[8],inactive; negative
same,mutagenic call,[9],inactive; negative
same,mutagenic call,"Test System: AMES SALMONELLA TYPHIMURIUM, Strain/Indicator: TA1535, Metabolic Activation: RAT, LIVER, S-9, AROCLOR 1254 (30%), Method: PREINCUBATION",inactive; negative
